Experimental data as given in ChEMBL document CHEMBL1126805, “Synthesis and evaluation of a series of benzylaniline hydrochlorides as potential cytotoxic and antimitotic agents acting by inhibition of tubulin polymerization” (J Med Chem, 1993).

How the values were obtained:
DMS-273 [1] = test: Tested for cytotoxicity against DMS 273 (small-cell lung cancer) cell line.; format: functional, Homo sapiens
NCI-H522 [2] = test: Tested for cytotoxicity against NCI-H522 (non-small-cell lung cancer) cell line.; format: functional, Homo sapiens
Tubulin = Tubulin (Bos taurus, UniProt Q6B856+Q862F3); test: In vitro inhibition of bovine electrophoretically homogeneous tubulin polymerization.; format: functional
Sequence of Tubulin (Q6B856 whole entry): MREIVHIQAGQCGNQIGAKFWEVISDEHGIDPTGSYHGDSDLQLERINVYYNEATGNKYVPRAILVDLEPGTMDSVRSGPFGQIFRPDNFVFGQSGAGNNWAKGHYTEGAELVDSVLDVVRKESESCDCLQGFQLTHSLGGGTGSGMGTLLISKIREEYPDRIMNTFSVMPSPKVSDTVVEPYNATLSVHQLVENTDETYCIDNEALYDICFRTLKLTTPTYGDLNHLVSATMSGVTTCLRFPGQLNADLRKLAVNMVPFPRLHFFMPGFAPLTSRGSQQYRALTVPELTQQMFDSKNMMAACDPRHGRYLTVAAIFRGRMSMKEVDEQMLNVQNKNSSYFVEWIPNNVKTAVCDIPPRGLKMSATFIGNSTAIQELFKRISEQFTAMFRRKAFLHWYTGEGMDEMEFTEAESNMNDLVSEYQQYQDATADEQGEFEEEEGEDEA
Sequence of Tubulin (Q862F3 whole entry): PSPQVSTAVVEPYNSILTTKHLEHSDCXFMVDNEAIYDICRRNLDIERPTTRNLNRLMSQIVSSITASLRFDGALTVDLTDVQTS

CAKI-1 [3] = test: Tested for cytotoxicity against CAKI-1 renal cancer; format: functional, Homo sapiens
OVCAR-3 [4] = test: Tested for cytotoxicity against OVCAR-3 (ovarian cancer) cell line.; format: functional, Homo sapiens
HL-60 [5] = test: Tested for cytotoxicity against human cancer cell lines HL-60(TB) (leukemia) cell line.; format: functional
M14 [6] = test: Tested for cytotoxicity against M14 melanoma; format: functional, Homo sapiens; details: Homo sapiens, M14
SF-295 [7] = test: In vitro cytotoxicity against SF-295 (CNS cancer) cell line.; format: functional, Homo sapiens
COLO 205 [8] = test: Tested for cytotoxicity against COLO 205 (colon cancer) cell line.; format: functional, Homo sapiens
CCRF-CEM = test: Tested for cytotoxicity against CCRF-CEM cell lines in leukemia; format: functional; details: Homo sapiens
DMS-273 [9] = test: Tested for cytotoxicity against DMS 273 cell lines in small-cell lung cancer; format: functional; details: Homo sapiens
U-251 = test: Tested for cytotoxicity against U251 cell lines in CNS cancer; format: functional; details: Homo sapiens
OVCAR-4 = test: Tested for cytotoxicity against OVCAR-4 cell lines in ovarian cancer; format: functional; details: Homo sapiens
HCT-15 = test: Tested for cytotoxicity against HCT-15 cell lines in colon cancer; format: functional; details: Homo sapiens
OVCAR-3 [10] = test: Tested for cytotoxicity against OVCAR-3 cell lines in ovarian cancer; format: functional; details: Homo sapiens
COLO 205 [11] = test: (§1) Tested for cytotoxicity against COLO 205 cell lines in colon cancer; format: functional; details: Homo sapiens
A549 = test: Tested for cytotoxicity against A549/ATCC cell lines in non-small-cell lung cancer; format: functional; details: Homo sapiens
HL-60 [12] = test: Tested for cytotoxicity against HL-60 (TB) cell lines in leukemia; format: functional; details: Homo sapiens
M19-MEL = test: Tested for cytotoxicity against M19-MEL cell lines in melanoma; format: functional; details: Homo sapiens
SK-MEL-5 = test: Tested for cytotoxicity against SK-MEL-5 cell lines in melanoma; format: functional; details: Homo sapiens
SW-620 = test: Tested for cytotoxicity against SW-620 cell lines in colon cancer; format: functional; details: Homo sapiens
SK-MEL-2 = test: Tested for cytotoxicity against SK-MEL-2 cell lines in melanoma; format: functional; details: Homo sapiens
HOP-18 = test: Tested for cytotoxicity against HOP-18 cell lines in non-small-cell lung cancer; format: functional; details: Homo sapiens
KM12 = test: Tested for cytotoxicity against KM12 cell lines in colon cancer; format: functional; details: Homo sapiens
SNB-78 = test: Tested for cytotoxicity against SNB-78 cell lines in CNS cancer; format: functional; details: Homo sapiens
OVCAR-8 = test: Tested for cytotoxicity against OVCAR-8 cell lines in ovarian cancer; format: functional; details: Homo sapiens
KM-20L2 = test: Tested for cytotoxicity against KM20L2 cell lines in colon cancer; format: functional; details: Homo sapiens
SK-OV-3 = test: Tested for cytotoxicity against SK-OV-3 cell lines in ovarian cancer; format: functional; details: Homo sapiens
MOLT-4 = test: Tested for cytotoxicity against MOLT-4 cell lines in leukemia; format: functional; details: Homo sapiens
HOP-62 = test: Tested for cytotoxicity against HOP-62 cell lines in non-small-cell lung cancer; format: functional; details: Homo sapiens
CAKI-1 [13] = test: (§2) Tested for cytotoxicity against CAKI-1 cell lines in renal cancer; format: functional; details: Homo sapiens
786-0 = test: Tested for cytotoxicity against 786-0 cell lines in renal cancer; format: functional; details: Homo sapiens
SNB-19 = test: Tested for cytotoxicity against SNB-19 cell lines in CNS cancer; format: functional; details: Homo sapiens
NCI-H522 [14] = test: (§3) Tested for cytotoxicity against NCI-H522 cell lines in non-small-cell lung cancer; format: functional; details: Homo sapiens
DMS-273 [15] = test: Tested for cytotoxicity against DMS273 cell lines in small-cell lung cancer; format: functional; details: Homo sapiens
IGROV-1 = test: Tested for cytotoxicity against IGROV1 cell lines in ovarian cancer; format: functional; details: Homo sapiens
CAKI-1 [16] = test: as §2; format: functional; details: Homo sapiens; remark: listed apart in the source
K562 = test: Tested for cytotoxicity against K-562 cell lines in leukemia; format: functional; details: Homo sapiens
SNB-75 = test: Tested for cytotoxicity against SNB-75 cell lines in CNS cancer; format: functional; details: Homo sapiens
M14 [17] = test: (§4) Tested for cytotoxicity against M14 cell lines in melanoma; format: functional; details: Homo sapiens
ACHN = test: Tested for cytotoxicity against ACHN cell lines in renal cancer; format: functional; details: Homo sapiens
A498 = test: Tested for cytotoxicity against A498 cell lines in renal cancer; format: functional; details: Homo sapiens
Malme-3M = test: Tested for cytotoxicity against MALME-3M cell lines in melanoma; format: functional; details: Homo sapiens
HT-29 = test: Tested for cytotoxicity against HT-29 cell lines in colon cancer; format: functional; details: Homo sapiens
COLO 205 [18] = test: as §1; format: functional; details: Homo sapiens; remark: listed apart in the source
SN12C = test: Tested for cytotoxicity against SN12C cell lines in renal cancer; format: functional; details: Homo sapiens
XF498 = test: Tested for cytotoxicity against XF 498 cell lines in CNS cancer; format: functional; details: Homo sapiens
NCI-H322M = test: Tested for cytotoxicity against NCI-H322M cell lines in non-small-cell lung cancer; format: functional; details: Homo sapiens
HCT-116 = test: Tested for cytotoxicity against HCT116 cell lines in colon cancer; format: functional; details: Homo sapiens
LOX IMVI = test: Tested for cytotoxicity against LOX IMVI cell lines in melanoma; format: functional; details: Homo sapiens
LXFL 529 = test: Tested for cytotoxicity against LXFL529 cell lines in non-small-cell lung cancer; format: functional; details: Homo sapiens
SF-295 [19] = test: (§5) Tested for cytotoxicity against SF-295 cell lines in CNS cancer; format: functional; details: Homo sapiens
UO-31 = test: Tested for cytotoxicity against UO-31 cell lines in renal cancer; format: functional; details: Homo sapiens
RXF 393 = test: Tested for cytotoxicity against RXF-393 cell lines in renal cancer; format: functional; details: Homo sapiens
UACC-257 = test: Tested for cytotoxicity against UACC-257 cell lines in melanoma; format: functional; details: Homo sapiens
NCI-H460 = test: Tested for cytotoxicity against NCI-H460 cell lines in non-small-cell lung cancer; format: functional; details: Homo sapiens
NCI-H522 [20] = test: as §3; format: functional; details: Homo sapiens; remark: listed apart in the source
TK-10 = test: Tested for cytotoxicity against TK-10 cell lines in renal cancer; format: functional; details: Homo sapiens
DMS-114 = test: Tested for cytotoxicity against DMS114 cell lines in small-cell lung cancer; format: functional; details: Homo sapiens
SF-268 = test: Tested for cytotoxicity against SF-268 cell lines in CNS cancer; format: functional; details: Homo sapiens
DLD-1 = test: Tested for cytotoxicity against DLD-1 cell lines in colon cancer; format: functional; details: Homo sapiens
RPMI-8226 = test: Tested for cytotoxicity against RPMI-8226 cell lines in leukemia; format: functional; details: Homo sapiens
M14 [21] = test: as §4; format: functional; details: Homo sapiens; remark: listed apart in the source
EKVX = test: Tested for cytotoxicity against […] cell lines in non-small-cell lung cancer; format: functional; details: Homo sapiens
UACC-62 = test: Tested for cytotoxicity against UACC-62 cell lines in melanoma; format: functional; details: Homo sapiens
NCI-H23 = test: Tested for cytotoxicity against NCI-H23 cell lines in non-small-cell lung cancer; format: functional; details: Homo sapiens
OVCAR-5 = test: Tested for cytotoxicity against OVCAR-5 cell lines in ovarian cancer; format: functional; details: Homo sapiens
HOP-92 = test: Tested for cytotoxicity against HOP-92 cell lines in non-small-cell lung cancer; format: functional; details: Homo sapiens
SF-539 = test: Tested for cytotoxicity against SF-539 cell lines in CNS cancer; format: functional; details: Homo sapiens
SF-295 [22] = test: as §5; format: functional; details: Homo sapiens; remark: listed apart in the source

Structure (SMILES): COc1ccc(/N=C/c2cc(OC)c(OC)c(OC)c2)cc1
- GI50 (DMS-273 [1]; Homo sapiens, DMS-273): 33000 nM
- GI50 (NCI-H522 [2]; Homo sapiens, NCI-H522): > 100000 nM
- IC50 (Tubulin): > 40 µM
- GI50 (CAKI-1 [3]; Homo sapiens, CAKI-1): > 100000 nM
- GI50 (OVCAR-3 [4]; Homo sapiens, OVCAR-3): > 100000 nM

Structure (SMILES): CCOc1ccc(/N=C/c2cc(OC)c(OC)c(OC)c2)cc1
- GI50 (DMS-273 [1]; Homo sapiens, DMS-273): > 100000 nM
- GI50 (NCI-H522 [2]; Homo sapiens, NCI-H522): > 100000 nM
- IC50 (Tubulin): > 40 µM
- GI50 (HL-60 [5]; Homo sapiens, HL-60): > 100000 nM
- GI50 (CAKI-1 [3]; Homo sapiens, CAKI-1): > 100000 nM
- GI50 (M14 [6]): > 100000 nM
- GI50 (OVCAR-3 [4]; Homo sapiens, OVCAR-3): > 100000 nM
- GI50 (SF-295 [7]; Homo sapiens, SF-295): > 100000 nM

Structure (SMILES): CCc1ccc(NCc2cc(OC)c(OC)c(OC)c2)cc1
- GI50 (DMS-273 [1]): 135 nM
- GI50 (NCI-H522 [2]; Homo sapiens, NCI-H522): 234 nM
- GI50 (COLO 205 [8]; Homo sapiens, COLO 205): 344 nM
- IC50 (Tubulin): 3 µM
- GI50 (HL-60 [5]; Homo sapiens, HL-60): 168 nM
- GI50 (CAKI-1 [3]; Homo sapiens, CAKI-1): 354 nM
- GI50 (M14 [6]): 315 nM
- GI50 (OVCAR-3 [4]; Homo sapiens, OVCAR-3): 283 nM
- GI50 (SF-295 [7]; Homo sapiens, SF-295): 266 nM

Structure (SMILES): COc1cc(CNc2ccc(C)cc2)cc(OC)c1OC
- GI50 (CCRF-CEM): 282 nM
- GI50 (DMS-273 [9]): 104 nM
- GI50 (U-251): 331 nM
- GI50 (OVCAR-4): 21.4 µM
- GI50 (HCT-15): 245 nM
- GI50 (OVCAR-3 [10]): 214 nM
- GI50 (COLO 205 [11]): 219 nM
- GI50 (A549): 513 nM
- GI50 (HL-60 [12]): 89.1 nM
- GI50 (M19-MEL): 331 nM
- GI50 (SK-MEL-5): 912 nM
- GI50 (SW-620): 110 nM
- GI50 (SK-MEL-2): 132 nM
- GI50 (HOP-18): 37.2 µM
- GI50 (KM12): 759 nM
- IC50 (Tubulin): 3.5 µM
- GI50 (SNB-78): 1100 nM
- GI50 (OVCAR-8): 759 nM
- GI50 (KM-20L2): 251 nM
- GI50 (SK-OV-3): 269 nM
- GI50 (MOLT-4): 427 nM
- GI50 (HOP-62): 282 nM
- GI50 (CAKI-1 [13]): 162 nM
- GI50 (786-0): 324 nM
- GI50 (SNB-19): 295 nM
- GI50 (NCI-H522 [14]): 204 nM
- GI50 (DMS-273 [15]): 93.3 nM
- GI50 (IGROV-1): 708 nM
- GI50 (CAKI-1 [16]): 13.2 nM
- GI50 (K562): 100 nM
- GI50 (SNB-75): 389 nM
- GI50 (M14 [17]): 292 nM
- GI50 (ACHN): 97.7 nM
- GI50 (A498): > 100 µM
- GI50 (Malme-3M): 468 nM
- GI50 (HL-60 [5]): 722 nM
- GI50 (HT-29): 347 nM
- GI50 (COLO 205 [18]): 214 nM
- GI50 (SN12C): 851 nM
- GI50 (XF498): 468 nM
- GI50 (NCI-H322M): 501 nM
- GI50 (HCT-116): 575 nM
- GI50 (LOX IMVI): 851 nM
- GI50 (LXFL 529): 631 nM
- GI50 (SF-295 [19]): 324 nM
- GI50 (UO-31): 832 nM
- GI50 (RXF 393): 112 nM
- GI50 (UACC-257): > 100 µM
- GI50 (NCI-H460): 214 nM
- GI50 (NCI-H522 [20]): 262 nM
- GI50 (TK-10): > 100 µM
- GI50 (DMS-114): 427 nM
- GI50 (SF-268): 912 nM
- GI50 (DLD-1): 575 nM
- GI50 (RPMI-8226): 437 nM
- GI50 (M14 [21]): < 10 nM
- GI50 (EKVX): 741 nM
- GI50 (UACC-62): 575 nM
- GI50 (NCI-H23): 407 nM
- GI50 (OVCAR-5): 1350 nM
- GI50 (HOP-92): 18.6 µM
- GI50 (SF-539): 316 nM
- GI50 (SF-295 [22]): 233 nM

Structure (SMILES): COc1ccc(NCc2cc(OC)c(OC)c(OC)c2)cc1
- GI50 (DMS-273 [1]): 534 nM
- GI50 (NCI-H522 [2]): 2760 nM
- GI50 (COLO 205 [8]): 1660 nM
- IC50 (Tubulin): 8.9 µM
- GI50 (HL-60 [5]): 834 nM
- GI50 (CAKI-1 [3]): 2500 nM
- GI50 (M14 [6]): 2380 nM
- GI50 (OVCAR-3 [4]): 1960 nM
- GI50 (SF-295 [7]): 2320 nM
